Data from patent US10633383B2, “Compounds for the treatment, alleviation or prevention of disorders associated with Tau aggregates” (AC Immune SA, priority 2018, dated 2020).

Target: T1, Tau K18 fragment (amino acids 244 to 372 of human Tau441) aggregates (Homo sapiens, UniProt P10636)
T1 construct: encompassing amino acids 244 to 372 of the longest isoform (2N4R) of human Tau441; host or cells: bacteria
Assay: Tau K18 disaggregation assay by ThT
Format: biochemical
Conditions: 2 μM K18 aggregates, 30 minutes at RT, ThT fluorescence
Method: Tau K18 Disaggregation Assay by ThT
Compounds were dissolved in anhydrous dimethyl sulfoxide (DMSO, Sigma-Aldrich) to reach a concentration of 10 mM. K18 aggregates and serial dilutions of compounds were mixed together in PBS (volume 50 μL) to a final concentration of 2 μM of K18 aggregates and from 160 to 0.04 μM of compounds. The mixture was incubated for 30 minutes at room temperature (RT), then 40 μL of this mixture were transferred into a black 384-well plate assay (Perkin-Elmer) and mixed with 10 μL of 100 μM ThT in 250 mM glycine (both from Sigma-Aldrich) in PBS. Fluorescence (relative fluorescence units; RFU) was measured in monoplicate or duplicate on a Tecan reader (excitation: 440 nm; emission: 485 nm). Percentage of K18 disaggregation was then calculated and half maximal effective concentration (EC50) was determined using GraphPad Prism version 5 (GraphPad Software) assuming a one-binding site fitting model.

T1 sequence (P10636 561-689): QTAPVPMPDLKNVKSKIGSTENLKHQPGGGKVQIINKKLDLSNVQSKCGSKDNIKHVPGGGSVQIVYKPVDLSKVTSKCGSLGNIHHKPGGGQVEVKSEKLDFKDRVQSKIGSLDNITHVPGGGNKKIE

Structure (SMILES)	EC50 [µM]
Cn1c2c(c3cc(F)ccc31)CN(c1ccc3nc(N4CCOCC4)sc3c1)CC2 [Example 1]	< 10
CN(C)c1nc2ccc(N3CCc4[nH]c5ccc(F)cc5c4C3)cc2s1 [Example 7]	< 10
CN(C)c1nc2cc(N3CCc4[nH]c5ccc(F)cc5c4C3)ccc2o1 [Example 10]	< 10
CN(C)c1nc2cc(N3CCc4[nH]c5ccc(F)cc5c4C3)ccc2s1 [Example 11]	< 10
Cn1c2c(c3cc(F)ccc31)CN(c1ccc3nc(N4CCOCC4)oc3c1)CC2 [Example 15]	25 to 50
CN(C)c1nc2cc(N3CCc4c(c5cc(F)cnc5n4C)C3)ccc2o1 [Example 38]	< 10
CNc1nc2ccc(N3CCc4c(c5cc(OC)ccc5n4C)C3)cc2s1 [Example 41]	< 10
Fc1cccc2[nH]c3c(c12)CN(c1ccc2oc(N4CCOCC4)nc2c1)CC3 [Example 53]	< 10
Fc1ccc2[nH]c3c(c2c1)CN(c1cnc2nc(N4CCOCC4)sc2c1)CC3 [Example 71]	< 10
Fc1ccc2[nH]c3c(c2c1)CN(c1ccc2nc(N4CCOCC4)sc2n1)CC3 [Example 72]	< 10
Fc1ccc2c3c([nH]c2c1)CCN(c1cnc2nc(N4CCOCC4)sc2c1)C3 [Example 73]	< 10
Fc1ccc2[nH]c3c(c2c1)CN(c1ccc(N2CCOCC2)cn1)CC3 [Example 76]	< 10
Cn1c2c(c3cc(F)ccc31)CN(c1ccc(N3CCOCC3)cn1)CC2 [Example 77]	< 10
Fc1ccc2c3c([nH]c2c1)CCN(c1ccc(N2CCOCC2)cn1)C3 [Example 78]	< 10
Fc1ccc2c3c([nH]c2c1)CCN(c1ccc(N2CCOCC2)nc1)C3 [Example 79]	< 10
Cn1c2c(c3ccc(F)cc31)CN(c1ccc(N3CCOCC3)cn1)CC2 [Example 80]	< 10
Fc1cccc2[nH]c3c(c12)CN(c1ccc(N2CCOCC2)nc1)CC3 [Example 81]	10 to 25
Fc1cccc2[nH]c3c(c12)CN(c1ccc(N2CCOCC2)cn1)CC3 [Example 82]	10 to 25

Structure (SMILES)	EC50 [µM]
Cn1c2c(c3c(F)cccc31)CN(c1ccc(N3CCOCC3)nc1)CC2 [Example 83]	< 10
Cn1c2c(c3ccccc31)CN(c1ccc(N3CCOCC3)cn1)CC2 [Example 84]	< 10
c1ccc2c3c([nH]c2c1)CCN(c1ccc(N2CCOCC2)cn1)C3 [Example 85]	< 10
c1ccc2c3c([nH]c2c1)CCN(c1ccc(N2CCOCC2)nc1)C3 [Example 86]	10 to 25
Cn1c2c(c3ccc(F)cc31)CN(c1ccc(N3CCOCC3)nc1)CC2 [Example 87]	< 10
Fc1ccc2c3c([nH]c2c1)CCN(c1ccc2nc(N4CCOCC4)sc2n1)C3 [Example 88]	< 10
Fc1ccc2c3c([nH]c2c1)CCN(c1cc2sc(N4CCOCC4)nc2cn1)C3 [Example 89, 4-(6-(7-fluoro-1,3,4,5-tetrahydro-2H-pyrido[4,3-b]indol-2-yl)thiazolo[4,5-c]pyridin-2-yl)morpholine]	< 10
Fc1ccc2[nH]c3c(c2c1)CN(c1cc2sc(N4CCOCC4)nc2cn1)CC3 [Example 90]	< 10
Fc1ccc2c3c([nH]c2c1)CCN(c1ccc2ccc(N4CCOCC4)nc2c1)C3 [Example 91]	10 to 25
Fc1ccc2c3c([nH]c2c1)CCN(c1ccc2nc(N4CCOCC4)ccc2c1)C3 [Example 92]	< 10
COc1ccc2nc(N3CCc4c(c5cc(F)ccc5n4C)C3)ccc2c1 [Example 93]	< 10
COc1cncc(N2CCc3c(c4cc(F)ccc4n3C)C2)c1 [Example 94]	< 10
COc1cc(N2CCc3c(c4cc(F)ccc4n3C)C2)ccn1 [Example 95]	< 10
Cn1c2c(c3cc(F)ccc31)CN(c1ccc(N3CCOCC3)cc1)CC2 [Example 96]	< 10
COc1ccc2c(c1)c1c(n2C)CCN(c2ccc3oc(N(C)C)nc3c2)C1 [Example 96a]	10 to 25
c1cnc2oc3c(c2c1)CN(c1ccc2oc(N4CCOCC4)nc2c1)CC3 [Example 96b]	< 10
Cn1c2c(c3cc(F)ccc31)CN(c1cncc(C(F)(F)F)c1)CC2 [Example 96d]	< 10
